In patent publication US10799622B2, “Reducing post-operative adhesion formation with intraperitoneal glutamine” (AdeTherapeutics Inc., priority 2005, dated 2020):
Residues, ends and D or L forms follow the SMILES beside them.

What was measured:
[1] = system: post-operative adhesion formation; test: Modified cecal puncture abdominal surgery, histological assessment of post-operative adhesions (Example 1); type: in vivo, male Wistar rats; conditions: for complications due to intraperitoneal use: 0.3-1.5 g/kg intraperitoneally; for reducing and/or preventing post-operative adhesions (including secondary adhesions): administered intra-peritoneally; for acute inflammatory response (macrophages and macrophage chemotactic proteins): days 3-7, vs saline and non-treatment surgical groups
Procedure: 70 plus male Wistar rats (over 350 g each) were assessed histologically on post-operative days 1,3,5,7,10, 30, and at about 6 weeks. The rats were randomly distributed based on the mode of treatment, type of sutures and presence or absence of hemorrhage during surgery. Initially, there were three surgery groups (alanyl-glutamine treatment, saline, no treatment) plus a control (no surgery).
The rats were anaesthetized with halothane/Ketamine. Open surgery involving a midline sub-umbilical incision and a modified cecal puncture with pulstring to prevent soilage after abdominal closure was done. The procedure involved some fecal extrusion, mimicking clinical scenarios of iatrogenic/traumatic perforations of the bowel. Alanyl-glutamine [Degussa; Coubevoie, France] […] (1.5 g/kg) was instilled into the peritoneal cavity from a syringe. The cecum, abdomen, and the skin were closed in layers using the same suture. Various absorbable (3/0 Vicryl™, 3/0 Monocryl™, 3/0 PDS™, 2/0 Maxon™) and non-absorbable sutures (3/0 Prolene™, 3/0 Ethibond™, 4/0 & 5/0 Surgilene™, 3/0 Novafil™) were used. The wound was infiltrated with local anesthetic. The animals were given sufficient chow to eat (20 g/day≈2 mmole/kg/day). The gastrointestinal tract and omentum were harvested from the stomach to the sigmoid colon and fixed in formaldehyde solution for evaluation.
The severity of adhesions was assessed histologically using standard Haematoxylin & Eosin and Masson trichrome stained slides. The latter helped delineate the degree of fibrosis and collagen deposition.
Semi-quantitative analysis was done by scoring the average number of milky spots per high-power-field (HPF). Quantitative statistical analysis was done using the T-test between the experimental groups. Milky spots are a marker for inflammation and adhesion formation.

[2] = system: post-operative adhesion formation; test: as above; type: in vivo, male Wistar rats; conditions: 0.3 g/kg intraperitoneal
secondary adhesions = test: Secondary adhesions after adhesiolysis in rats with mesh implants, Zuhlke score (Example 3); type: in vivo, Sprague-Dawley rats; conditions: three weeks after adhesiolysis and installation, six months after initial surgery
Procedure: Adhesions tend to recur once in place. We examined the effect of alanyl-glutamine treatment on such secondary adhesions. The modified caecal perforation with pulstring closure procedure described in Example 1 was performed on 9 Sprague-Dawley rats. These were divided into 5 groups, each group receiving a different form of mesh (INTERCEED™; PROCEED™; BARD™ composite; prolene; and a mesh which was allowed to be “infected” by repeated re-opening of the wound). The surgical procedure with mesh implacement was performed without application of a glutamine source. Six months after initial surgery, a laparotomy was performed on each rat then adhesiolysis followed by installation of alanyl-glutamine.

[3] = system: post-operative adhesion formation; test: Surgery as in Example 1 with Marlex mesh inserted, Zuhlke adhesion score (Example 2); type: in vivo, rats; conditions: day 90
Procedure: Previous studies show a high incidence of adhesion formation when surgical mesh is employed as a reinforcing material [6a, 6b]. We repeated trials as described in Example 1, inserting Marlex™ mesh during the procedure on the surgical groups.
Severity of adhesions was assessed at day 90 using the adhesion score of Zuhlke, et al.. This scoring procedure has been described in the literature for assessment of other potential treatments for adhesions. […] This differs from previous measurements of adhesions using polypropylene mesh which reported up to about 90% adhesion formation [6a].

SMILES	complications due to intraperitoneal use [1]	reducing and/or preventing post-operative adhesions (including secondary adhesions) ([1]; summary statement)	acute inflammatory response (macrophages and macrophage chemotactic proteins) [1]	effectiveness of dosage [2]	recurrence of adhesions (secondary adhesions), scored according to Zuhlke, et al. (secondary adhesions)	adhesion score of Zuhlke, et al. [3]	effectiveness of dosage ([1]; 1.5 g/kg intraperitoneal)	histological appearance of the peritoneum (adhesion) ([1]; 10th post-operative day, intraperitoneal, vs untreated and saline treated surgical groups)	milky spots per 5 high power field (5HPF) in the peritoneum ([1]; controls 1 per 5HPF, untreated surgical group 6-7)	adhesions in all the suture groups (braided and monofilament, absorbable and non-absorbable) ([1]; intraperitoneal)	effect in adhesion prevention compared with L-glutamine ([1]; summary statement)
NC(=O)CC[C@H](N)C(=O)O [L-glutamine]	did not observe complications	effective	reduction, but to a lesser extent	–	–	–	–	–	–	–	–
C[C@H](N)C(=O)N[C@@H](CCC(N)=O)C(=O)O [alanyl-glutamine] (H-Ala-Gln-OH)	did not observe complications	effective	markedly reduced	effective	no secondary adhesions were seen	0-1	effective	very minimal adhesion	the same as the controls	prevented adhesions	more pronounced
